In one assay the test system is DU145 cells. Kind of assay: Scratch migration assay. In kind it is cell-based, human. The conditions noted are these: preliminary data. How it is done:
For in-vitro migration experiments, the PCa metastatic DU145 cell line was used. Cell proliferation and cytotoxicity were monitored for assay validation. The cells (passage # ≤ 10) were grown in fresh media of EMEM 10% FBS, 1% P/S. The cells were seeded in flat-bottom transparent 96-well microplates (100,000 cells/100 μL/well) in EMEM 5% FBS, 1% P/S experimental media. The next day, the confluent cells monolayer was artificially injured by scratching a line across each well, using a 200 μL tip. Immediately, the old media with the detached cells were replaced with 175 μL fresh warm experimental media. Intact cells were then treated with 25 μL of HBSS buffer 7.4 containing tested KKR. In addition to the negative control, KKR11 was tested at gradual concentrations to make finals of 40, 30, 23, 17, and 13 μM. The cells were then incubated for an additional 72 h for gap closure of the control wells.
At the gap closure time point, all cells were subjected to the crystal violet assay that only stains viable cells. Briefly, all media were carefully aspired from cells that were then washed with Ca- and Mg-free PBS. The cells were then fixed with 100 μL 0.25% v/v glutaraldehyde, at 37 °C for 20–30 min incubation time, and dried overnight. The next day, all viable attached cells were stained with a 100 μL crystal violet solution (0.1% in DI-water) for up to 30 min. The solution was then discarded, and the stained cells were kept dry for imaging. Images of the scratched areas were photographed using 10X phase contrast objective lenses of Motic-MXH-100-AE31E-Elite Inverted Microscope.

Another assay concerns the target T1, hMAO-B (Homo sapiens, UniProt P27338).
T1 construct: purchased Sigma-Aldrich Co. (St. Louis, MO, USA)
T1 sequence (P27338 1-520): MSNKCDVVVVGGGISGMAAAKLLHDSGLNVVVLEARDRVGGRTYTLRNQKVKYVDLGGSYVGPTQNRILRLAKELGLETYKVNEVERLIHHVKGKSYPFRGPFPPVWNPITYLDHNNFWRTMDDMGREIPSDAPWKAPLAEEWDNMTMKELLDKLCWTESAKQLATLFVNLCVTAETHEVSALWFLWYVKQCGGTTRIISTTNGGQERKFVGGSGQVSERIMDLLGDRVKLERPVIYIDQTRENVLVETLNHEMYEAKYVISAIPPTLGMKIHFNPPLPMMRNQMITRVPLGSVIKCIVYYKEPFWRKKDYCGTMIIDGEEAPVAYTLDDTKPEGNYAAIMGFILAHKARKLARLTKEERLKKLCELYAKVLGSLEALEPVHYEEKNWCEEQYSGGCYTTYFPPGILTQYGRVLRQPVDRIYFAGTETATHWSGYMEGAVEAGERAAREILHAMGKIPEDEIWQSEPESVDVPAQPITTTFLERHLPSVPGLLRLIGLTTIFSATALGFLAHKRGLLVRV
Kind of assay: MAO-Glow inhibitory potency (IC50). In kind it is biochemical. The conditions noted are these: mean ± SEM, at least two experiments; LDS 4 μM. Here is the method: The inhibitory effects of the synthesized KKRs of hMAO-A and B were tested by measuring the decrease in arbitrary light units (ALU) signal produced by the optimized isozymes using the MAO-Glow™ Assay at 37 °C. In this assay, DMSO stock for each KKR compound was diluted with a reaction buffer of pH 7.4 to make a 4X working solution for a maximum final concentration of 100 μM and ≤1% DMSO. The experiments were run in the absence and presence of 4X the miscellaneous standards of MAO-BIs (DEP, PARG, and SAF) and MAO-AIs (PIRL and CLORG), with similar concentrations. In white opaque 96-well microplates, 12.5 μL of each compound was plated at RT and was followed by 25 μL of 2X cold hMAO-A or hMAO-B, for a final concentration of 0.44 U/mL. A related buffer substituted each isozyme to make the blank wells and substituted each compound to make the negative control wells. Following this, we added 12.5 μL of 4X LDS to make a final substrate concentration of 40- and 4-μM for hMAO-A and hMAO-B, respectively. All screen plates were incubated at 37 °C for 60 min. The plates of 50 μL/well were then taken out from the incubator, and their reactions were stopped by an equal volume of 50 μL of reporter luciferin detection reagent (RLDR). After 30 min, the luminescence signals for all plates were read on a Synergy HTX Multi-reader from Bio-Tek (Winooski, VT, USA).
The experiments were performed in the presence and absence of the standard PILR. In white opaque 96-well plates, each KKR compound was serially diluted with a reaction buffer of pH 7.4 at the highest possible maximum final concentration, and the least used DMSO (<2%). In blank wells, the related reaction buffer substituted the isozyme. In negative control wells, the reaction buffer substituted each compound concentration. Then, the procedure was carried out as mentioned above (Section 4.2.2), and the reaction was detected on the Bio-Tek Synergy HTX Multi-Reader. The IC50 of each KKR on both isozymes was determined and subsequently the RSA and RSB was calculated.
Statistical analyses were performed using the GraphPad Prism program (version 6.07 for Windows) from the GraphPad Prism Software Incorporated (San Diego, CA, USA). All data points and parameters were expressed as the mean ± SEM. All parameters were calculated from non-linear and linear regressions with the best R^2 values, no less than 93%. The inhibitory concentration of 50% of isozyme (IC50) of each compound was obtained by the interpolation of a normalized variable slope logarithmic curve. The RSA values of the selected compounds were calculated from their IC50 average means following the equation RSA = hMAO − B IC50/Hmao − A IC50(1)

Another assay has as its system LNCaP cells. The assay is described as follows: Antiproliferation dose-response assay for 72 h. The assay is classed as cell-based. The following applies: Homo sapiens, mean ± SEM of two experiments, read-out: antiproliferative IC50. Here is the method: For the top effective KKRs, along with TAX, their potency to reduce the affected PCa cell line growth in a dose-dependent manner was determined using the resazurin fluorescence assay. We followed the same protocols and materials used for the antiproliferation screen assays (Section 4.3.2), with the following modifications. The maximum final KKR concentration used was 40 μM. The concentration of 8X of each KKR working solution in 1% HEPES 7.4 was serially diluted in a 3:1 ratio, compound to buffer, respectively. Each data set was collected from ten data points of 3.7–40 μM range. The control had the KKR substituted with buffer. The related IC50 averages were analyzed for the compounds that affected the cell lines the most.

Where only a bound is given, the exact number is not on record here.

Broadly, the IC50 is the midpoint of a concentration-inhibition curve. Consider `COc1cc(O)c(C(=O)/C=C/c2ccc(Cl)c(Cl)c2)c(OC)c1` [KKR11, (E)-3-(3,4-dichlorophenyl)-1-(2-hydroxy-4,6-dimethoxyphenyl)prop-2-en-1-one], for which, in the assay on DU145 cells, the “effect on cell migration” value is listed as “delayed cell migration”. For the same compound, the IC50 at hMAO-B was 1.12 ± 0.09 µM; in the assay on LNCaP cells, 9.5 µM.

Regarding `O=c1cc(-c2ccccc2)oc2cc(Cl)c(Cl)cc12` [KKR21, 6,7-dichloro-2-phenyl-4H-chromen-4-one], the IC50 is above 800 µM at hMAO-B and above 40 µM in the assay with LNCaP cells.

On to `O=c1c(O)c(-c2ccccc2)oc2c(Cl)cc(Cl)cc12` [KKR7, 6,8-dichloro-3-hydroxy-2-phenyl-4H-chromen-4-one], for which, in the assay on DU145 cells, the “effect on cell migration” value is on record as “no significant effects against cell migration”. Further, the IC50 at hMAO-B is above 800 µM; in the assay on LNCaP cells, 9.1 µM.

Consider `COc1cc(OC)c2c(=O)c(O)c(/C=C/c3cc(OC)c(OC)c(OC)c3)oc2c1` [KKR2A, (E)-3-hydroxy-5,7-dimethoxy-2-(3,4,5-trimethoxystyryl)-4H-chromen-4-one], for which the IC50 at hMAO-B was 0.2 ± 0.02 µM; with LNCaP cells it was above 40 µM.

For `O=C(/C=C/c1ccccc1)c1cc(Cl)cc(Cl)c1O` [KKR20, (E)-1-(3,5-dichloro-2-hydroxyphenyl)-3-phenylprop-2-en-1-one], the “effect on cell migration” value in the assay on DU145 cells was “no significant effects against cell migration”. The IC50 at hMAO-B came to 0.79 ± 0.06 µM; with LNCaP cells, 9.2 µM.
